Laboratory results: patent publication US20030215899A1, “Reversible oxidation of protein tyrosine phosphatases” (CEPTYR, Inc., priority 2002, published 2003)
Entries after “also recorded” stand apart in the source; their conditions may differ.

Assays:
[1] = test system: tyrosine phosphorylation of cellular proteins in Rat-1 cells; experiment: immunoprecipitation (PT-66) and anti-pTyr (G104) immunoblot of tyrosine phosphorylated proteins; format: cell-based; settings: PDGF-treated Rat-1 cells, preliminary experiments
Description: (§1) For immunoprecipitation, cells were rinsed with ice-cold PBS, then lysed in ice-cold 20 mM Hepes (pH 7.5), 1% NP-40, 150 mM NaCl, 10% glycerol, 200 μM […] and protease inhibitors (25 μg/ml of aprotinin and leupeptin). […] The anti-pTyr antibody G104 was described previously (Garton et al., 1997 Oncogene 15, 877-885). Anti-PDGFRββ antibody (Ab-X) was a gift from Dr. Daniel DiMaio at Yale University (Irusta and DiMaio, 1998 EMBO J. 17, 6912-6923). Anti-human G-CSF receptor (G-CSFR) antibody was provided by Dr. Toshio Hirano at Osaka University, Japan (Fukada et al., 1996 Immunity 5, 449-460). Lysate (400 μg) was incubated with 5 μg of antibody conjugated to protein A/G-Sepharose (Amersham Pharmacia, Arlington Heights, Ill.) for 2 hours at 4° C. For immunoblotting, aliquots of total lysates (30 μg per sample) or immunoprecipitates were subjected to SDS-PAGE and transferred to nitrocellulose filters, which were incubated with appropriate primary and secondary antibodies and the specific signals were visualized by the ECL detection system (Amersham Pharmacia).

[2] = test system: intracellular ROS in Rat-1 cells; experiment: ROS-induced DCF fluorescence (microscopy, flow cytometry); format: cell-based; settings: 20 μM CM-H2DCFDA, growth factor 50 ng/ml, 10 mins
Description: The effects of H2O2 and t-BHP on inactivation of PTPs and activation of MAPK signaling pathways were next compared in a cellular context. Intracellular ROS were measured using 2′,7′-dichlorofluorescein diacetate (H2DCFDA) and 5-(and-6)-chloromethyl-2′,7′-dichlorodihydrofluorescein diacetate (CM-H2DCFDA) (all fluorescent ROS indicators from Molecular Probes, Eugene, Oreg.) either by fluorescence microscopy, using a Zeiss Axiovert 405M inverted microscope equipped with a fluorescence attachment and digital camera, or by cell sorting, using a FACSCalibur System ([…].), according to the manufacturer's recommendations. Rat-1 cells were pre-loaded with 20 μM H2DCFDA in the dark for 20 mins, then exposed to H2O2 and t-BHP (both 200 μM) for 5 mins. Images of ROS-induced DCF fluorescence are shown at magnification 400× (FIG. 3B upper panel). Cells (1×10^5) that underwent the same treatment as above were harvested and resuspended in Hanks' solution, then immediately subjected to flow cytometric analysis to measure ROS-induced DCF fluorescence. The basal peak indicates background fluorescence, whereas the rightward shifted peak indicates ROS-induced DCF fluorescence (FIG. 3B, lower panels). […] Cells were exposed to H2O2 and t-BHP (each at 200 μM) for the indicated times, lysed in the presence of 10 mM IAA and oxidized PTPs were visualized in the in-gel PTP activity assay.
Rat-1 cells were incubated with 20 μM CM-H2DCFDA in the dark for 20 mins, then exposed to peptide growth factors (50 ng/ml) for an additional 10 mins. Images of ROS-induced DCF fluorescence are shown at 50× magnification. (FIG. 6A) The data are representative of 4 independent experiments. In FIG. 6B, Rat-1 cells were exposed to peptide growth factors for the indicated times, lysed in the presence of 10 mM IAA, and oxidized PTPs were visualized by the in-gel PTP assay. […] Aliquots of cell lysate from each treatment group were immunoblotted with anti-phospho-MAPK Ab and re-probed with anti-MAPK Ab.

70 kDa PTP (SHP-2) = molecular target: T1, 70 kDa PTP (SHP-2) (Rattus norvegicus, UniProt P41499); experiment: modified in-gel PTP assay, growth factor stimulated Rat-1 cells; format: cell-based
T1 construct: endogenous in cells; host or cells: Rat-1 fibroblasts
T1 sequence (P41499 1-593): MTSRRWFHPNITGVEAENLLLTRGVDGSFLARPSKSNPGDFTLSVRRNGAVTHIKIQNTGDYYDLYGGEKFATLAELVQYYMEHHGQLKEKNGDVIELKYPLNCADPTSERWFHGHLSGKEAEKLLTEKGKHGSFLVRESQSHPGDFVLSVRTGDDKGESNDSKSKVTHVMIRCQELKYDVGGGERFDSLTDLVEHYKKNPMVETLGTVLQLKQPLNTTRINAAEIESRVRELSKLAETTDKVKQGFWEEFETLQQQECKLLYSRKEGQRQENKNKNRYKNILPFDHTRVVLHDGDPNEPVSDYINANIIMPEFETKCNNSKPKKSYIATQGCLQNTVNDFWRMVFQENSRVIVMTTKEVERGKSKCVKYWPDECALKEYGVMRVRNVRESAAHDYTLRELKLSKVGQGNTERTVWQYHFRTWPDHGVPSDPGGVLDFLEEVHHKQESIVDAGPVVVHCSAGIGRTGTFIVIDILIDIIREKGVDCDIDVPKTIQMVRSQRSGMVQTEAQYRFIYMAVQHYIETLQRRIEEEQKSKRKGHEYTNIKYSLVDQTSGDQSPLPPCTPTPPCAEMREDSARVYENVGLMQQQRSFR
From the text: (§2) To determine whether ROS stimulated intracellular tyrosine phosphorylation through the oxidation and inhibition of cellular PTPs, a modified in-gel PTP activity assay was devised, as follows: As substrate, poly (4:1) Glu-Tyr (Sigma) was labeled with [γ-^32P]-ATP using the GST-FER fusion PTK, as described previously (Shen et al., 1998 J. Biol. Chem. 273:6474-81). The labeled substrates were used within three weeks to limit the variation of its specific activity from experiment to experiment. The lysis buffer (25 mM CH3COONa, 1% NP-40, 150 mM NaCl, 10% glycerol, pH 5.5) was degassed at 4° C. for overnight, before catalase and superoxide dismutase (both 100 μg/ml), protease inhibitors and 10 mM iodoacetic acid (IAA) were added. Following stimulation, cells were lysed under anaerobic conditions in an argon chamber. Lysates (25 μg) were processed as described herein and an “in-gel” phosphatase assay (Burridge and Nelson, 1995) was conducted using SDS-PAGE gels containing a radioactively-labeled substrate (1.5×10^6 cpm/20 ml gel solution, approximately 2 μM p-Tyr).
(§3) Cells were triggered with the appropriate stimulus and harvested under anaerobic conditions in lysis buffer containing IAA. Those PTPs that had not encountered ROS in the cell became irreversibly inactivated by alkylation of their active site Cys with IAA. However, in contrast, any PTPs in which the active site Cys had been oxidized in response to the stimulus were resistant to alkylation. For the “in-gel” phosphatase assay, a 10% SDS-PAGE gel was cast containing a radioactively-labeled substrate. An aliquot of cell lysate was subjected to SDS-PAGE and proteins in the gel were sequentially denatured, then renatured in the presence of reducing reagents. […] The reaction was then terminated by fixing, staining and destaining the gel. Finally the gel was dried and exposed to film. The presence of a PTP was visualized by substrate dephosphorylation, as the appearance of a clear, white area on the black background of labeled substrate.
As described above, treatment of Rat-1 cells with H2O2 led to inactivation of multiple PTPs (FIGS. 2-3). […] Lysates of PDGF-stimulated Rat-1 cells were then analyzed using the modified in-gel PTP activity assay described above. […] Serum-starved Rat-1 cells were exposed to 50 ng/ml PDGF-BB for the times indicated (FIG. 4A). Lysates were prepared in the presence of 10 mM IAA and subjected to the in-gel PTP assay. […] The result shown is representative of four independent experiments. Oxidation of this 70 kDa PTP was reversible, reaching a maximum at 5 minutes, followed by marked reduction, almost to basal levels, within 20 minutes of PDGF treatment (FIG. 4A).
Rat-1 cells, either untreated (−) or stimulated with 50 ng/ml PDGF (+), were harvested in lysis buffer containing 10 mM IAA.

MAPK = experiment: anti-phospho-MAPK / anti-MAPK immunoblot; format: cell-based, Rat
Description: as §1

PDGFR/SHP-2 complex = experiment: recruitment of SHP-2 into a complex with the PDGFR; format: cell-based; settings: ligand stimulation in Rat-1 cells, preliminary studies
Description: as §1
Serum-starved Rat-1 cells were exposed to PDGF (50 ng/ml) for the indicated times (FIG. 5A). The PDGFR and associated proteins were immunoprecipitated with antibody Ab-X, and pTyr proteins visualized by immunoblotting with anti-pTyr Ab G104 (FIG. 5A, upper panel). […]

PTP1B (50 kDa PTP) = molecular target: T2, PTP1B (50 kDa PTP) (Rattus norvegicus, UniProt P20417); experiment: modified in-gel PTP assay (RCML substrate), insulin stimulated Rat-1 cells; format: cell-based; settings: 50 nM insulin, serum-starved Rat-1 cells
T2 construct: endogenous in cells; host or cells: Rat-1 fibroblasts
T2 sequence (P20417 1-432): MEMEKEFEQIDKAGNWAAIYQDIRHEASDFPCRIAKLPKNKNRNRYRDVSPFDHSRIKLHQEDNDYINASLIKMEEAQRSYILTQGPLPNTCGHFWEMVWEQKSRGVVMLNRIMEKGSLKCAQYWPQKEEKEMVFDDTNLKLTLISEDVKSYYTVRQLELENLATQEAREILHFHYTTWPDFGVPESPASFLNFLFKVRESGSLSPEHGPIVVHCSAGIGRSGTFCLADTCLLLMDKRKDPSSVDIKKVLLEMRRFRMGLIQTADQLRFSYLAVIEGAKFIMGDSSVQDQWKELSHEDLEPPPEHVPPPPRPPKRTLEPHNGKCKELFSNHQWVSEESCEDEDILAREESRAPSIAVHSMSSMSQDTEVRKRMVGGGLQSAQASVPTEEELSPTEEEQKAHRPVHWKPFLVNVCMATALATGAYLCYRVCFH
Description: (§4) The effect of insulin-induced H2O2 production on PTP oxidation was examined using the modified in-gel PTP assay essentially as described in Example 1. Serum-starved Rat-1 cells were exposed to 50 nM insulin for 2, 5, 10, 20, and 30 minutes. Lysates were prepared under anaerobic conditions in the presence of 10 mM IAA and then subjected to in-gel PTP assays. The substrate incorporated into the SDS-PAGE gels for these assays was ^32P-labeled reduced, carboxamidomethylated and maleylated lysozyme (RCML) (1.5×10^6 cpm/20 ml gel solution, ˜2 μM p-Tyr).
(§5) The oxidized 45 kDa and 50 kDa PTPs were identified as TC-45 and PTP1B, respectively, by immunodepletion and immunoblotting. Total cell lysates were prepared as described in Example 1. Lysate (400 μg) was incubated with normal IgG, anti-PTP1B antibody (FG6, LaMontagne et al., Mol. Cell. Biol. 18:2965-75 (1998)), or anti-TC45 antibody (1910H, Lorenzen et al., J. Cell. Biol. 131:631-43 (1995)) coupled to protein G-Sepharose ^T beads (Amersham Biosciences). After the immunoprecipitation step, the immune complexes and supernatants were collected and subjected to in-gel PTP assays. Immunodepletion of the 50 kDa PTP from the lysate with anti-PTP1B antibody is shown in FIG. 11B, and immunodepletion of the 45 kDa PTP with antibody specific for TC45 is shown in FIG. 11C. […]

TC45 (45 kDa PTP) = molecular target: T3, TC45 (45 kDa PTP) (Rattus norvegicus, UniProt P35233); experiment: as above; format: cell-based; settings: 50 nM insulin, serum-starved Rat-1 cells
T3 construct: endogenous in cells; host or cells: Rat-1 fibroblasts
T3 sequence (P35233 1-382 isoform P35233-2): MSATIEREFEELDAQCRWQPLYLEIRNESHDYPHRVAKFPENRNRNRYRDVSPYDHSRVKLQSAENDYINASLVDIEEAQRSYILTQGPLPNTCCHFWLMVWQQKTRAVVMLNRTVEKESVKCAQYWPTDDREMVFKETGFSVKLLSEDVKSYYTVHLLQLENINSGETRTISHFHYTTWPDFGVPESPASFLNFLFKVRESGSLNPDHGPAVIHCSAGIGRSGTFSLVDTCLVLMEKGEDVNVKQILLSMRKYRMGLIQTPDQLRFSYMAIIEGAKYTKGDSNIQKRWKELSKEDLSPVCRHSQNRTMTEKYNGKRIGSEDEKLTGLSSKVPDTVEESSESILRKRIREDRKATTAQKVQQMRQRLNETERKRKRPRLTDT
Description: as §4, §5

PTPs in Rat-1 cells = experiment: modified in-gel PTP activity assay of Rat-1 cell lysates; format: cell-based
From the text: as §2, §3

SHP-2 (E76A mutant) = SHP-2 (E76A mutant) (Homo sapiens, UniProt Q06124, E76A); format: biochemical
[3] = test system: PTPs in peripheral blood mononuclear lymphocytes; experiment: in-gel protection assay, PHA-stimulated peripheral blood mononuclear lymphocytes; format: cell-based, human; settings: 50 mM IAA, cells without ASBA-1 pretreatment
Description: Peripheral blood mononuclear lymphocytes were purified from human blood. In 5 ml media (RPMI), 2×10^7 cells were incubated in 50 μM ASBA-1 (PTP specific inhibitor) for 90 minutes and stimulated with phytohemagglutinin (PHA, 0.5 μL of 5.0 mg/ml stock) for 2, 10 or 30 min. […] Desalted proteins were separated on a 2 ml Source Q anion exchange column (Amersham Pharmacia Biotech) using a 0-1M NaCl gradient in 20 mM Tris, pH 7.5; 1 mM EDTA; 0.05% Triton X-100.

Compound: PDGF: peptide growth factor
- tyrosine phosphorylation of cellular proteins [1]: rapid increase in the tyrosine phosphorylation of cellular proteins
- production of intracellular ROS [2]: triggered production of intracellular ROS
- time of maximum oxidation of 70 kDa PTP (70 kDa PTP (SHP-2); 50 ng/ml PDGF-BB): 5 min
- time to reduction of 70 kDa PTP almost to basal levels (70 kDa PTP (SHP-2); 50 ng/ml PDGF-BB): ≤ 20 min
- oxidation of ~70 kDa PTP (70 kDa PTP (SHP-2); 50 ng/ml PDGF-BB, serum-starved Rat-1 cells): rapid and transient oxidation; also recorded: transiently oxidized
- oxidation and inhibition of SHP-2 (70 kDa PTP (SHP-2); peptide growth factors, lysis with 10 mM IAA): oxidation and inhibition of SHP-2 was observed; also recorded: induced
- phosphorylation of MAPKs (MAPK; PDGF-treated Rat-1 cells, preliminary experiments): enhanced phosphorylation of MAPKs
- activation of MAPK (MAPK; peptide growth factors, Rat-1 cells): activated MAPK to a similar extent
- fraction of total SHP-2 recruited into a complex with the PDGFR (PDGFR/SHP-2 complex): ~10%

Compound: insulin: polypeptide hormone used as stimulus
- oxidation of 50 kDa PTP (PTP1B) (PTP1B (50 kDa PTP)): transiently oxidized; also recorded: induced the transient oxidation
- oxidation of 45 kDa PTP (TC45) (TC45 (45 kDa PTP)): transiently oxidized; also recorded: induced the transient oxidation

Compound: O=C(O)CI [IAA, iodoacetic acid]
- inactivation of PTPs in lysate by alkylation (PTPs in Rat-1 cells): effectively inactivated PTPs
- inactivation of purified SHP-2 (SHP-2 (E76A mutant)): inactivated by IAA
- inactivation of PTPs [3]: inactivated by IAA
